Values after ≈ are worked out from the molar mass of the structure shown.
Key:
Type in all cases: functional, organism-based
[1] = test system: Plasmodium falciparum; assay: Antimalarial activity against Plasmodium falciparum D6
[2] = test system: Plasmodium falciparum; assay: Antimalarial activity against Plasmodium falciparum W2
[3] = test system: Plasmodium falciparum; assay: Antimalarial activity against Plasmodium falciparum W2 after 24 hrs by in presence of [3H]hypoxanthine
[4] = test system: Plasmodium falciparum; assay: Antimalarial activity against Plasmodium falciparum D6 after 24 hrs by in presence of [3H]hypoxanthine

Q: Which results are given for `C[C@H]1[C@@H](CCO)O[C@@H]2O[C@]3(C)CC[C@H]4[C@H](C)CC[C@@H]1[C@@]24OO3`?
A: IC50 [1]: 0.34 ng/mL (≈ 1.09 nM); IC50 [2]: 0.18 ng/mL

Q: Which results are given for `CCC[C@H]1O[C@@H]2O[C@]3(C)CC[C@H]4[C@H](C)CC[C@@H]([C@H]1C)[C@@]24OO3`?
A: IC50 [1]: 0.41 ng/mL (≈ 1.32 nM); IC50 [2]: 0.16 ng/mL

Q: With `C[C@H]1[C@@H](O[C@@H](C)CC(=O)O)O[C@@H]2O[C@]3(C)CC[C@H]4[C@H](C)CC[C@@H]1[C@@]24OO3` as the molecule, how does the IC50 [3] read?
A: The IC50 was 7.43 ng/mL.

Q: And the IC50 [4]?
A: The IC50 was 15 ng/mL.

Q: Which results are given for `COC(=O)CC[C@@H](OC1O[C@@H]2O[C@]3(C)CC[C@H]4[C@H](C)CC[C@@H]([C@H]1C)[C@@]24OO3)c1ccc(F)cc1` (stereo partly specified)?
A: IC50 [1]: 0.43 ng/mL (≈ 0.9 nM); IC50 [2]: 0.398 ng/mL

Q: With `COC(=O)[C@@H](C)CO[C@H]1O[C@@H]2O[C@]3(C)CC[C@H]4[C@H](C)CC[C@@H]([C@H]1C)[C@@]24OO3` as the molecule, how does the IC50 [3] read?
A: Its IC50 is 0.015 ng/mL.

Q: What about the IC50 [4] of the same molecule?
A: Its IC50 is 0.36 ng/mL.

Q: `C[C@@H]1CC[C@H]2[C@](C)(Br)[C@@H](Nc3ccccc3)O[C@@H]3O[C@]4(C)CC[C@@H]1[C@]32OO4` was tested. Which IC50 [1] did it give?
A: The IC50 was 3.42 ng/mL (≈ 7.8 nM).

Q: And the IC50 [2]?
A: Its IC50 is 0.63 ng/mL.

Q: What does the source list for `C[C@@H]1CC[C@H]2[C@@H](C)C(CCCO)O[C@@H]3O[C@]4(C)CC[C@@H]1[C@]32OO4` (stereo partly specified)?
A: IC50 [1]: 0.23 ng/mL (≈ 0.705 nM); IC50 [2]: 0.23 ng/mL

Q: `C[C@@H]1CC[C@H]2[C@](C)(Br)[C@@H](Nc3ncccn3)O[C@@H]3O[C@]4(C)CC[C@@H]1[C@]32OO4` was tested. Which IC50 [1] did it give?
A: The IC50 was 26 ng/mL (≈ 59 nM).

Q: And the IC50 [2]?
A: The IC50 was 5.56 ng/mL.

Q: For `COC(=O)CC[C@H](OC1O[C@@H]2O[C@]3(C)CC[C@H]4[C@H](C)CC[C@@H]([C@H]1C)[C@@]24OO3)c1ccc(F)cc1` (stereo partly specified), which IC50 [1] is on record?
A: Its IC50 is 0.616 ng/mL (≈ 1.29 nM).

Q: What about the IC50 [2] of the same molecule?
A: The IC50 was 0.488 ng/mL.

Q: Which IC50 [3] does the source give for `C[C@H]1[C@@H](OC[C@@H](C)C(=O)O)O[C@@H]2O[C@]3(C)CC[C@H]4[C@H](C)CC[C@@H]1[C@@]24OO3` here?
A: The IC50 was 5.34 ng/mL.

Q: And the IC50 [4]?
A: The IC50 was 22.2 ng/mL.

Q: Which results are given for `COC(=O)CC[C@H](OC1O[C@@H]2O[C@]3(C)CC[C@H]4[C@H](C)CC[C@@H]([C@H]1C)[C@@]24OO3)c1ccc(Cl)cc1` (stereo partly specified)?
A: IC50 [1]: 0.903 ng/mL (≈ 1.82 nM); IC50 [2]: 0.794 ng/mL

Q: Which results are given for `COC(=O)CC[C@@H](OC1O[C@@H]2O[C@]3(C)CC[C@H]4[C@H](C)CC[C@@H]([C@H]1C)[C@@]24OO3)c1ccc(Cl)cc1` (stereo partly specified)?
A: IC50 [1]: 0.727 ng/mL (≈ 1.47 nM); IC50 [2]: 0.629 ng/mL

Q: How did the IC50 [3] turn out when `C[C@H]1[C@@H](O[C@H](C)CC(=O)O)O[C@@H]2O[C@]3(C)CC[C@H]4[C@H](C)CC[C@@H]1[C@@]24OO3` was run?
A: The IC50 was 4.42 ng/mL.

Q: And the IC50 [4]?
A: Its IC50 is 36.5 ng/mL.

Q: Which IC50 [1] does the source give for `COC(=O)CCC(OC1O[C@@H]2O[C@]3(C)CC[C@H]4[C@H](C)CC[C@@H]([C@H]1C)[C@@]24OO3)c1ccc(Cl)cc1` (stereo partly specified) here?
A: The IC50 was 0.391 ng/mL (≈ 0.79 nM).

Q: What about the IC50 [2] of the same molecule?
A: The IC50 was 0.656 ng/mL.

Q: Which IC50 [2] does the source give for `C[C@H]1[C@@H](C(F)(F)F)O[C@@H]2O[C@]3(C)CC[C@H]4[C@H](C)CC[C@@H]1[C@@]24OO3` here?
A: Its IC50 is 6.2 nM.

Q: Which results are given for `CC[C@H]1O[C@@H]2O[C@]3(C)CC[C@H]4[C@H](C)CC[C@@H]([C@H]1C)[C@@]24OO3`?
A: IC50 [1]: 1.09 ng/mL (≈ 3.68 nM); IC50 [2]: 0.29 ng/mL

Q: Which IC50 [3] does the source give for `C[C@H]1[C@@H](OC[C@H](C)C(=O)O)O[C@@H]2O[C@]3(C)CC[C@H]4[C@H](C)CC[C@@H]1[C@@]24OO3` here?
A: Its IC50 is 8.33 ng/mL.

Q: And the IC50 [4]?
A: The IC50 was 28.7 ng/mL.

Q: With `C[C@@H]1CC[C@H]2[C@](C)(Br)[C@@H](Nc3nccs3)O[C@@H]3O[C@]4(C)CC[C@@H]1[C@]32OO4` as the molecule, how does the IC50 [1] read?
A: Its IC50 is 0.91 ng/mL (≈ 2.04 nM).

Q: And the IC50 [2]?
A: The IC50 was 0.21 ng/mL.

Q: Which IC50 [1] does the source give for `C[C@@H]1CC[C@H]2[C@](C)(Br)[C@@H](Nc3cccc(F)c3)O[C@@H]3O[C@]4(C)CC[C@@H]1[C@]32OO4` here?
A: Its IC50 is 0.16 ng/mL (≈ 0.351 nM).

Q: And the IC50 [2]?
A: The IC50 was under 0.16 ng/mL.

Q: For `COC(=O)[C@H](C)CO[C@H]1O[C@@H]2O[C@]3(C)CC[C@H]4[C@H](C)CC[C@@H]([C@H]1C)[C@@]24OO3`, which IC50 [3] is on record?
A: Its IC50 is 0.057 ng/mL.

Q: What about the IC50 [4] of the same molecule?
A: The IC50 was 2.15 ng/mL.

Q: What does the source list for `C[C@@H]1CC[C@H]2[C@](C)(Br)[C@@H](Nc3ccccn3)O[C@@H]3O[C@]4(C)CC[C@@H]1[C@]32OO4`?
A: IC50 [1]: 7.72 ng/mL (≈ 17.6 nM); IC50 [2]: 1.19 ng/mL
